Key:
newborn neurons = test: Survival of BrdU-prelabeled newborn neurons (FIG. 4); format: in vivo, mice; settings: BrdU bolus, then twice-daily IP 7 days
Method: (§1) Adult mice were administered a bolus of BrdU (150 mg/kg) to label newborn neurons, and 24 hours later, twice-daily IP treatment was begun with vehicle or compound for 7 days. At the end of the 7 days, the number of surviving BrdU-labeled neurons was quantified. Importantly, under the conditions of this experiment, newborn neurons were labeled prior to exposure to drug, so any increase in number of neurons can be attributed to neuroprotective activity rather than proliferative effects. […] Data shown are mean+/−SEM. P values are shown for comparison to VEH treated group, and were obtained by one-way ANOVA with Dunnet's post-hoc test, using GraphPad Prism 5.0. Asterisks indicate p<0.01 (*) or p<0.0001 (***).
as §1, with “Specifically, in FIG. 4, adult” for “Adult”, “Asterisks indicate p<0.01 (*) or p<0.0001 (***).” left out

[1] = Pharmacokinetic analysis, plasma and brain levels
[2] = test system: cultured hippocampal neurons; test: 6-OHDA toxicity in cultured neurons (MTT); format: cell-based; settings: 10 μM compound
Method: (§2) A rat model of Parkinson's disease, incuded by 6-hydroxydopamine (6-OHDA) was used to test various compounds As shown in FIGS. 33A-33D, P7C3-S243 protects cultured hippocampal and cortical neurons from 6-OHDA toxicity. […] (FIG. 33B) The average number of hippocampal neurons in the 10 μM P7C3-S243 treatment group was not different from the average number of hippocampal neurons treated with medium alone or with DMSO+Ascorbic acid (one-way ANOVA). […] The average number of cortical neurons in the 10 μM P7C3-S243 treatment group was not different from the average number of cortical neurons treated with medium alone or with DMSO+Ascorbic acid (one-way ANOVA). Experiments were performed two independent times, with 8-12 replicates of each sample both times.

[3] = test system: cultured cortical neurons; test: 6-OHDA toxicity in cultured neurons (MTT); format: cell-based; settings: 10 μM compound
Method: as §2

[4] = test system: hippocampal CA1 Schaffer-collateral pathway; test: Hippocampal electrophysiology (LTP, PPF) after blast-mediated TBI; format: in vivo, mice
Method: To test our hypothesis that performance in the Barnes maze was associated with hippocampal function, we investigated synaptic plasticity in the hippocampus. Specifically, we measured both long-term potentiation (LTP) and paired pulse facilitation (PPF) in brain slices derived from mice exposed to blast-injury as a function of treatment with different doses of P7C3-S243 for 9 days, initiated 24 hours after injury, in animals not subjected to behavioral testing. The stimulating electrode activated CA3 Schaeffer collateral axons, and the recording electrode was placed in the stratum radiatum of the CA1 region, where Schaffer collateral axons synapse with dendrites from CA1 pyramidal cells. […] Thus, dose-dependent protective efficacy of P7C3-S243 in behavioral tasks of learning and memory correlated with hippocampal function.
Electrophysiology. Single-housed, naïve 7- to 9-week-old male C57BL/6J mice received intraperitoneal injections of P7C3-S243 (0.3, 3, or 30 mg/kg/day) or vehicle 24 h following a single sham- or blast-Injury. On the tenth day after injury, coronal hippocampal slices (400 μm) were prepared, in accordance with the University of Iowa guidelines. Briefly, hippocampal slices were cut using a Vibratome 1000 Plus (Vibratome, St. Louis, Mo.) in ice-cold slicing buffer (in mM: 127 NaCl, 26 NaHCO3, 1.2 KH2PO4, 1.9 KCl, 1.1 CaCl2, 2 MgSO4, 10 D-Glucose) bubbled with 95% 02 and 5% CO2. Slices were then transferred to a holding chamber containing oxygenated artificial cerebrospinal fluid (ACSF; in mM: 127 NaCl, 26 NaHCO3, 1.2 KH2PO4, 1.9 KCl, 2.2 CaCl2, 1 MgSO4, 10 D-Glucose) for 30 min at 34 C and for another 30 min at 22° C. for recovery, and then transferred to a submersion recording chamber continually perfused with 32° C. oxygenated ACSF (rate: 2 ml/min). Slices were equilibrated for at least 15 min before each recording.
ACSF-filled glass electrodes (resistance <1 MΩ) were positioned in the stratum radiatum of area CA1 for extracellular recording. Synaptic responses were evoked by stimulating Schaffer collaterals with 0.2 ms pulses once every 15 s. […] Experiments with maximal fEPSPs of less than 0.5 mV, with large fiber volleys, or with substantial changes in the fiber volley during recording were rejected. LTP was induced by 12TBS (12 bursts, each of 4 pulses at 100 Hz).
Field EPSPs were recorded (AxoClamp 900A amplifier, Axon Instruments, Foster City, Calif.), filtered at 1 kHz, digitized at 10 kHz (Axon Digidata 1440), and stored for off-line analysis (Clampfit 10). Initial slopes of fEPSPs were expressed as percentages of baseline averages. In summary graphs, each point represents the average of 4 consecutive responses. The time-matched, normalized data were averaged across experiments.

μ-opioid receptor = μ-opioid receptor (Homo sapiens, UniProt P35372); test: Ligand displacement (Psychoactive Drug Screening Program); format: binding
Chain of μ-opioid receptor (P35372 whole entry, species assumed): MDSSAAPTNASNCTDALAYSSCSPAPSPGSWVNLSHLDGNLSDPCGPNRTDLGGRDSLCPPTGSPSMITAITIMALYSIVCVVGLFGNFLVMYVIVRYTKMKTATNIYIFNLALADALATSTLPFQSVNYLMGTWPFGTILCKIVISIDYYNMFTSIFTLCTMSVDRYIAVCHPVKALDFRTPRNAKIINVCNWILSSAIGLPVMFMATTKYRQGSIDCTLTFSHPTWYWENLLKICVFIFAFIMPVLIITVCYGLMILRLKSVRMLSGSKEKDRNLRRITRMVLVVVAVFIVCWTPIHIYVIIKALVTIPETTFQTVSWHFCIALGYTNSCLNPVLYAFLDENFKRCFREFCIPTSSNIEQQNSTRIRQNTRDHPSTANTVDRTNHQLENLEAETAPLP

2C8 = 2C8 (Homo sapiens, UniProt P10632); test: Cytochrome P450 inhibition; format: in vitro ADME
Chain of 2C8 (P10632 whole entry): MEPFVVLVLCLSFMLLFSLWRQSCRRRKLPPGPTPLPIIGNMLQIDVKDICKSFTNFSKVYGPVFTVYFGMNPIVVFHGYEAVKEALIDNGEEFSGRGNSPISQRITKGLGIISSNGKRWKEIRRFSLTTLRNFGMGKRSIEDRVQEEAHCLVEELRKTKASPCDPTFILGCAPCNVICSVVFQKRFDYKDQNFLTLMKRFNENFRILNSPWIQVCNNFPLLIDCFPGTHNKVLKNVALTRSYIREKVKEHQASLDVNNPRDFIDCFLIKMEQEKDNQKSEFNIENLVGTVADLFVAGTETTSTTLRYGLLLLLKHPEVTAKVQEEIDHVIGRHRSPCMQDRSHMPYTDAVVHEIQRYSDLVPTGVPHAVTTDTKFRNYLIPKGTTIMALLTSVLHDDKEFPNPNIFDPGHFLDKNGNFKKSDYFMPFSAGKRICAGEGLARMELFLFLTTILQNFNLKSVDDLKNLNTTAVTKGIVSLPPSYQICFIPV

[5] = test system: 47 neuronal receptors and channels; test: NIH Psychoactive Drug Screening Program panel; format: binding
CYP2C19 = CYP2C19 (Homo sapiens, UniProt P33261); test: Cytochrome P450 inhibition
Chain of CYP2C19 (P33261 whole entry): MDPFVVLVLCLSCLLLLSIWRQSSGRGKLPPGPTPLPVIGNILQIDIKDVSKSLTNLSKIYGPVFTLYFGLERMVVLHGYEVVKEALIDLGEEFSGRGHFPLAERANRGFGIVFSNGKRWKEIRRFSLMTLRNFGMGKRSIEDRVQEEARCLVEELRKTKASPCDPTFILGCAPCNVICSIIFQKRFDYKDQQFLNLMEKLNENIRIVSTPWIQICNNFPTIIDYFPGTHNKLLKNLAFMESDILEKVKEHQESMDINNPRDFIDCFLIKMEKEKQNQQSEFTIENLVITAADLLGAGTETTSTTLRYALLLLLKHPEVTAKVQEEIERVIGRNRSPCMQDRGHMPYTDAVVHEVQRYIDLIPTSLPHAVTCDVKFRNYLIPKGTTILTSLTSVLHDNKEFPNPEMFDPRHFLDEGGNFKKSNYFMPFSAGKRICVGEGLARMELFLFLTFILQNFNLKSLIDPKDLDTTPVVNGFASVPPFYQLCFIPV

[6] = test system: motor neurons in the spinal cord; settings: previously reported; cited from earlier work
[7] = test system: dopaminergic neurons within the substantia nigra; settings: previously reported; cited from earlier work
[8] = test system: newborn hippocampal neurons; settings: previously reported; cited from earlier work

COc1cccc(NCC(F)Cn2c3ccc(Br)cc3c3cc(Br)ccc32)n1 (racemic) [P7C3-S243, N-(3-(3,6-dibromo-9H-carbazol-9-yl)-2-fluoropropyl)-6-methoxypyridin-2-amine]
protection down to (dose) (newborn neurons): 1 mg/kg/day | % F (brain) ([1]; IP 10 mg/kg): 28% | % F (plasma) ([1]; IP 10 mg/kg): 66% | AUC(brain) ([1]; IP 10 mg/kg): 189 ± 35 µg·min/g | T1/2 ([1]; IP 10 mg/kg): >24 h | % F (brain) ([1]; IP 20 mg/kg): 48% | AUC(brain) ([1]; IP 20 mg/kg): 319 ± 68 µg·min/g | T1/2 ([1]; IP 20 mg/kg): 15 h | AUC(brain) ([1]; IV 10 mg/kg): 671 ± 14 µg·min/g | T1/2 ([1]; IV 10 mg/kg): 7.4 h | AUC(brain) ([1]; PO 20 mg/kg): 388 ± 29 µg·min/g | T1/2 ([1]; PO 20 mg/kg): 9.6 h | metabolic stability in vivo ([1]; all routes of administration): metabolically stable | brain levels ([1]; following IP dosing): dose-proportional increase | average number of neurons vs medium or DMSO+Ascorbic acid [2]: not different | protection (MTT) ([2]; 50 μM 6-OHDA, 24 hrs): significant protection | average number of neurons vs medium or DMSO+Ascorbic acid [3]: not different | protection (MTT) ([3]; 50 μM and 75 μM 6-OHDA): significant protection | blast-induced LTP deficit ([4]; 0.3 mg/kg/d from 24 hours after injury): not rescued | blast-induced deficits in LTP and PPF ([4]; 0.3 mg/kg/day): had no effect | blast-induced PPF deficit, 50 ms inter-pulse interval ([4]; 3 and 30 mg/kg/d): rescued | blast-induced LTP deficit ([4]; 3 and 30 mg/kg/d from 24 hours after injury): rescued

COc1cccc(NCC(F)Cn2c3ccc(Br)cc3c3cc(Br)ccc32)n1 (single isomer, unassigned; (-)) [(−)-P7C3-S243, (−)-N-(3-(3,6-dibromo-9H-carbazol-9-yl)-2-fluoropropyl)-6-methoxypyridin-2-amine]
IC50 (μ-opioid receptor): 8.2 µM | sensitivity of cytochrome P450 (2C8): insensitive | binding partners among 47 neuronal receptors and channels [5]: no compelling binding partners were identified | IC50 (CYP2C19): 1.9 µM

COc1cccc(NCC(F)Cn2c3ccc(Br)cc3c3cc(Br)ccc32)c1 (centres unmarked) [P7C3-A20, N-(3-(3,6-dibromo-9H-carbazol-9-yl)-2-fluoropropyl)-3-methoxyaniline]
motor neuron cell death in the spinal cord [6]: minimize motor neuron cell death | protection of substantia nigra neurons from MPTP (earlier report) [7]: protect neurons in the substantia nigra | activity in the in vivo hippocampal neuroprotection assay (previous studies) [8]: substantially improved activity

Source: US9902713B2, “Neuroprotective compounds and use thereof” (BOARD OF REGENTS OF THE UNIVERSITY OF TEXAS SYSTEM, priority 2013, dated 2018)
